The supplement of paper PMC13380429
± gives the standard deviation of the averaged measurements.

Tests used:
Settings in all cases: 72 h
U2OS [1] = assay: drug sensitivity score (DSS) for viability; higher = more toxic; extreme values may be limits of the assay
Caco-2 [2] = assay: as above
Calu-3 [3] = assay: as above
HepG2 [4] = assay: as above
Vero E6 [5] = assay: as above
U2OS [6] = assay: cell viability relative to DMSO; higher = less toxic
Caco-2 [7] = assay: as above
Calu-3 [8] = assay: as above
HepG2 [9] = assay: as above
Vero E6 [10] = assay: as above
U2OS [11] = assay: relative viability EC50 (midpoint between 100% and the lowest measured viability); higher = less toxic
Caco-2 [12] = assay: as above
Calu-3 [13] = assay: as above
HepG2 [14] = assay: as above
Vero E6 [15] = assay: as above

| Compound | drug sensitivity score (U2OS [1]) | drug sensitivity score (Caco-2 [2]) | drug sensitivity score (Calu-3 [3]) | drug sensitivity score (HepG2 [4]) | drug sensitivity score (Vero E6 [5]) | cell viability (U2OS [6]; 1 nM) | cell viability (U2OS [6]; 10 nM) | cell viability (U2OS [6]; 100 nM) | cell viability (U2OS [6]; 1000 nM) | cell viability (U2OS [6]; 10000 nM) | cell viability (Caco-2 [7]; 1 nM) | cell viability (Caco-2 [7]; 10 nM) | cell viability (Caco-2 [7]; 100 nM) | cell viability (Caco-2 [7]; 1000 nM) | cell viability (Caco-2 [7]; 10000 nM) | cell viability (Calu-3 [8]; 1 nM) | cell viability (Calu-3 [8]; 10 nM) | cell viability (Calu-3 [8]; 100 nM) | cell viability (Calu-3 [8]; 1000 nM) | cell viability (Calu-3 [8]; 10000 nM) | cell viability (HepG2 [9]; 1 nM) | cell viability (HepG2 [9]; 10 nM) | cell viability (HepG2 [9]; 100 nM) | cell viability (HepG2 [9]; 1000 nM) | cell viability (HepG2 [9]; 10000 nM) | cell viability (Vero E6 [10]; 1 nM) | cell viability (Vero E6 [10]; 10 nM) | cell viability (Vero E6 [10]; 100 nM) | cell viability (Vero E6 [10]; 1000 nM) | cell viability (Vero E6 [10]; 10000 nM) | relative viability EC50 (U2OS [11]) | relative viability EC50 (Caco-2 [12]) | relative viability EC50 (Calu-3 [13]) | relative viability EC50 (HepG2 [14]) | relative viability EC50 (Vero E6 [15]) |
| --- | --- | --- | --- | --- | --- | --- | --- | --- | --- | --- | --- | --- | --- | --- | --- | --- | --- | --- | --- | --- | --- | --- | --- | --- | --- | --- | --- | --- | --- | --- | --- | --- | --- | --- | --- |
| CCCC(=O)C1CCN(c2ncnc3c2CN(C(=O)c2ccc(-c4ccccc4)cc2)CC3)CC1 [PK-THPP] | 0 | 0.9 | 0 | 0 | 0 | 106% | 98.9% | 103% | 97% | 95.6% | 105% | 99.8% | 100% | 100% | 75.3% | 106% | 101% | 98.9% | 105% | 101% | 98.9% | 99.1% | 91.2% | 94.9% | 93.6% | 102% | 105% | 99.7% | 104% | 98.3% | > 10 µM | > 10 µM | > 10 µM | > 10 µM | > 10 µM |
| Oc1ccnc2cc(Cl)ccc12 [chloroxoquinoline] | 0 | 0 | 0 | 0 | 0 | 98.5% | 99.7% | 95.5% | 103% | 95.5% | 98.7% | 96.3% | 94.7% | 90.8% | 89.9% | 87.2% | 95.4% | 92.9% | 105% | 92.2% | 104% | 96.3% | 94.6% | 92.4% | 105% | 102% | 90.9% | 101% | 96.1% | 99.5% | > 10 µM | > 10 µM | > 10 µM | > 10 µM | > 10 µM |
| CCCCCCCCCCCCOS(=O)(=O)O [dodecyl-sulfate] | 0 | 0.05 ± 0.071 | 0 | 0 | 0 | 100 ± 4.9% | 93.5 ± 0.28% | 102 ± 4% | 91.7 ± 0.28% | 100 ± 4.6% | 101 ± 8.6% | 99.5 ± 16% | 102 ± 3.1% | 99.2 ± 3.1% | 106 ± 27% | 106 ± 17% | 94.5 ± 9% | 103 ± 4.2% | 90.5 ± 6.3% | 106 ± 3.5% | 106 ± 15% | 106 ± 12% | 102 ± 7% | 99.6 ± 5.7% | 92.1 ± 3.1% | 100 ± 5.2% | 102 ± 7.9% | 95.7 ± 5.3% | 104 ± 1.7% | 101 ± 6.7% | > 10 µM | > 10 µM | > 10 µM | > 10 µM | > 10 µM |
| COc1cc2c(cc1OC)CN(CCc1ccc(NC(=O)c3cccc4c(=O)c5cccc(OC)c5[nH]c34)cc1)CC2 [elacridar] | 0 | 0 | 0 | 0 | 0 | 96.5% | 99.3% | 99.2% | 100% | 99.8% | 97.3% | 91.6% | 92.2% | 95.5% | 88.3% | 98.9% | 94.3% | 99.6% | 101% | 89% | 99.6% | 107% | 101% | 96.6% | 97.9% | 97% | 94.8% | 98.7% | 93.5% | 103% | > 10 µM | > 10 µM | > 10 µM | > 10 µM | > 10 µM |
| CCCCCCCCCCCCCCSCC(=O)O [tetradecylthioacetic-acid] | 0 | 0 | 0 | 0 | 0 | 98.1% | 101% | 93.5% | 97.2% | 100% | 93.1% | 104% | 104% | 83.9% | 108% | 95.2% | 102% | 99.1% | 108% | 109% | 90.8% | 102% | 86.4% | 102% | 119% | 103% | 95.6% | 98.2% | 99.2% | 94.6% | > 10 µM | > 10 µM | > 10 µM | > 10 µM | > 10 µM |
